In US9987246B2, “4-benzylsulfonyl-2-butenenitrile” (Olatec Therapeutics LLC, priority 2014, dated 2018):

Tests used:
mice = experiment: Tail flick test (analgesic activity, 49° C. water bath); assay type: in vivo
Method: Tail flick test is a test of the pain response in animals. Tail flick test is used in basic pain research and to measure the effectiveness of analgesics, by observing the tail flick reaction to heat in an animal. This test assesses the nociceptive response to a local pain stimulus, and the ability of a drug to inhibit this response.
Vehicle control (dimethyl sulfoxide, DMSO) and test compound 4-benzylsulfonyl-2-butenenitrile in DMSO were administered intraperitoneally to mice with a volume of 5 mL/kg, twice, at 30 minutes before the first tail flick measurement. The test compound was administered at a dosage of 50 mg/kg. The positive control compound morphine was administered by subcutaneous injection at 8 mg/kg with a volume of 8 mL/kg, at 30 minutes before the first tail flick measurement. Each group had 10 mice.
The response of mice to heat stimulus was evaluated by measuring the time of tail-flick or tail-flick latency from 49° C. water bath. Briefly, the animal was placed in a restrainer with its tail hanging down. Approximately 2 inches of the tail was immersed in a beaker of water at 38±1° C. for about 30 seconds, and this was done twice to acclimate the animal to the procedure.
Subsequently, approximately 2 inches of the tail was immersed in a beaker of water at 49±1° C., at which point a timer was started.
Tail flick measurements were made 30, 60 and 120 minutes post administration of the dosage of test compound. An ANOVA was done, and if p<0.05, a Dunnett's t test was employed to calculate significant difference between vehicle control and test compound treated groups. A pairwise Student's t test was used to calculate differences between the morphine group and the control group.

[1] = tested on: human peripheral blood mononuclear cells; experiment: Pro-inflammatory cytokine release from human peripheral blood mononuclear cells in vitro; assay type: cell-based; conditions: statement only, no data or method given

Compound	tail flick latency compared with vehicle-treated mice (mice; morphine 8 mg/kg subcutaneous injection, 30 minutes)	tail flick latency compared with vehicle-treated mice (mice; morphine 8 mg/kg subcutaneous injection, 60 minutes)	tail flick latency compared with vehicle-treated mice (mice; morphine 8 mg/kg subcutaneous injection, 120 minutes)	tail flick latency compared with vehicle-treated mice (mice; 50 mg/kg intraperitoneal in DMSO, 30 minutes, p value=0.046)	tail flick latency compared with vehicle-treated mice (mice; 50 mg/kg intraperitoneal in DMSO, 120 minutes, p value=0.020)	inhibition of pro-inflammatory cytokine release (e.g., IL-1β, IL-6, TNFα, IL-4 and IFNγ) [1]
CN1CC[C@]23c4c5ccc(O)c4O[C@H]2[C@@H](O)C=C[C@H]3[C@H]1C5 [Morphine, morphine]	statistically significant tail flick latency	statistically significant tail flick latency	not at 120 minutes	–	–	–
N#CC=CCS(=O)(=O)Cc1ccccc1 (racemic) [4-benzylsulfonyl-2-butenenitrile]	–	–	–	statistically significant tail flick latency	statistically significant tail flick latency	effective in inhibiting pro-inflammatory cytokine release
